Data taken from PubChem BioAssay (NCI).
Where “and” joins values, the source holds several entries; their conditions need not be identical. Equal values may be shown once.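 Where inhibition never reached the appropriate level, the endpoint shown equals the highest concentration tested. Otherwise, values were interpolated linearly from a five-concentration, 48-hour dose response in 96-well plates. GI50 = concentration required for 50% inhibition of growth. At the TGI there is no net growth.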 Where a SMILES comes first, the peptide text is derived from it. The star is where a group is joined. Boc = CC(C)(C)OC(=O)*; OBn = c1ccc(CO*)cc1

Tests used:
Test in all cases: inhibition of tumour cell growth, NCI panel, 48 h
ACHN renal = test system: ACHN renal
NCI-H23 lung = test system: NCI-H23 lung
NCI-H522 lung = test system: NCI-H522 lung
SF-295 CNS = test system: SF-295 CNS
SK-MEL-2 melanoma = test system: SK-MEL-2 melanoma
T-47D breast = test system: T-47D breast
UO-31 renal = test system: UO-31 renal
HCC-2998 colon = test system: HCC-2998 colon
HL-60(TB) leukemia = test system: HL-60(TB) leukemia
SK-MEL-28 melanoma = test system: SK-MEL-28 melanoma

SMILES | TGI (ACHN renal) [µM] | TGI (NCI-H23 lung) [µM] | TGI (NCI-H522 lung) [µM] | TGI (SF-295 CNS) [µM] | TGI (SK-MEL-2 melanoma) [µM] | TGI (T-47D breast) [µM] | TGI (UO-31 renal) [µM] | TGI (HCC-2998 colon) [µM] | TGI (HL-60(TB) leukemia) [µM] | TGI (SK-MEL-28 melanoma) [µM] | GI50 (HCC-2998 colon) [µM] | GI50 (NCI-H23 lung) [µM] | GI50 (NCI-H522 lung) [µM] | GI50 (SK-MEL-2 melanoma) [µM] | GI50 (T-47D breast) [µM] | GI50 (UO-31 renal)
Cc1c(OCc2ccccc2)c(=O)ccn1CCc1c[nH]c2ccccc12 | > 100 | > 100 | 69.4 | > 100 | 48.2 | 58.1 | > 100 | – | – | – | – | – | – | – | – | –
CC(C)(C)C(=O)OCC1OC(N=[N+]=[N-])C(OC(=O)C(C)(C)C)C(OC(=O)C(C)(C)C)C1OC(=O)C(C)(C)C (centres undefined) | > 100 | > 100 | > 100 | > 100 | > 100 | – | > 100 | > 100 | > 100 | > 100 | – | – | – | – | – | –
CCCC1C(=O)Nc2cccc3ncn(c23)C1=O (centres undefined) | > 100 | > 100 | – | > 100 | > 100 | > 100 | > 100 | – | > 100 | > 100 | – | – | – | – | – | –
CCOC(=O)c1c(C)nc2c(c1-c1cn(-c3ccccc3)nc1-c1ccccc1)C(=O)c1ccccc1-2 | – | > 100 | > 100 | > 100 | > 100 | > 100 | – | – | – | > 100 | – | – | – | – | – | –
O=c1[nH]c(=O)n(COCCO)c2ccsc12 | > 100 | > 100 | > 100 | > 100 | > 100 | – | > 100 | > 100 | > 100 | > 100 | – | – | – | – | – | –
CN1CN(c2ccccc2)C2(CCN(CCCCCCF)CC2)C1=O | > 100 | > 100 | > 100 | > 100 | – | > 100 | 94.2 | – | > 100 | > 100 | – | – | – | – | – | –
Cc1ccc(S(=O)(=O)[C@@H](Cl)[C@H]2N=C(Cl)NN=C2c2ccccc2)cc1 | > 100 | 63.1 | 35.9 | > 100 | 34.8 | > 100 | 35.7 | > 100 | – | 36.1 | – | – | – | – | – | –
Cc1ccc(-c2cc(O)c3nc4ccccc4n3c2)cc1 | – | > 100 | > 100 | > 100 | – | > 100 | > 100 | – | > 100 | > 100 | – | – | – | – | – | –
COc1ccccc1N=Nc1c(O)c(S(=O)(=O)O)cc2cc(S(=O)(=O)O)ccc12 | > 100 | > 100 | > 100 | > 100 | > 100 | > 100 | > 100 | – | – | > 100 | – | – | – | – | – | –
Cc1ccc(N(O)C(C)(C)C)cc1 | – | > 100 | > 100 | > 100 | > 100 | – | > 100 | > 100 | > 100 | > 100 | – | – | – | – | – | –
O=C(Sc1c(-c2ccccc2)c(=O)n(-c2ccccc2)c(=S)n1-c1ccccc1)c1cccs1 | > 100 | > 100 | > 100 | > 100 | > 100 | > 100 | > 100 | – | > 100 | > 100 | – | – | – | – | – | –
CC1(C)CC2(C)CC1CC2(O)c1ccccc1 (centres undefined) | > 100 | > 100 | > 100 | > 100 | – | > 100 | > 100 | – | > 100 | > 100 | – | – | – | – | – | –
CCOC(=O)NNC(=O)NCc1ccccc1CNC(=O)NNC(=O)OCC | – | > 100 | > 100 | – | > 100 | > 100 | > 100 | > 100 | > 100 | > 100 | – | – | – | – | – | –
CC(=O)NNc1nc(C)c(C(=O)NNC(=O)C(=O)Nc2cccc(C(C)=O)c2)s1 | 30.8 | 35.2 | 28.9 | 66.2 | > 100 | – | 30.9 | 32.5 | 57.9 | 49 | – | – | – | – | – | –
CC(C)CC(NC(=O)OC(C)(C)C)C(=O)NC(CC(=O)OCc1ccccc1)C(=O)OCc1ccccc1 (stereo not drawn) (Boc-Leu-Asp(OBn)-OBn; configuration not given here) | – | > 100 | 79.2 | > 100 | > 100 | > 100 | 75 | 56.8 | > 100 | – | – | – | – | – | – | –
CS(=O)(=O)c1nc(-c2cc3c(c(S(C)(=O)=O)n2)CCC3)cc2c1CCCC2 | > 100 | > 100 | 45.9 | > 100 | 59.3 | – | > 100 | > 100 | > 100 | > 100 | – | – | – | – | – | –
Cc1ccc(S(=O)(=O)NC(=O)NC(CCCCN=C(N)N)C(=O)O)cc1 (centres undefined) | > 100 | > 100 | > 100 | > 100 | > 100 | > 100 | > 100 | – | > 100 | > 100 | – | – | – | – | – | –
COC(=O)NNC(c1ccc(Cl)cc1)c1ccc(Cl)cc1 | – | 34.6 | 38.7 | – | 26.6 | 68.2 | 25.2 | 27.6 | 64.4 | 43 | – | – | – | – | – | –
N#C/C(=C\c1ccc([N+](=O)[O-])s1)c1nc2cc(Cl)ccc2s1 | – | 3.91 | 3.56 | – | 3.7 | 4.97 | 2.8 | 6.8 | – | – | 2.31 | 0.773 | 1.18 | 1.25 | 1.88 | 0.602 µM
CC(C)OP(=O)(OC(C)C)C1=NN(c2ccc([N+](=O)[O-])cc2)C(P(=O)(OC(C)C)OC(C)C)=NN1c1ccc([N+](=O)[O-])cc1 | > 100 | > 100 | > 100 | – | > 100 | – | > 100 | > 100 | 16.4 | > 100 | – | – | – | – | – | –
C[S+](C)CC1OC(n2cnc3c(N)ncnc32)C(O)C1O (centres undefined) | – | > 225 | > 225 | > 225 | > 225 | – | > 225 | > 225 | > 225 | > 225 | – | – | – | – | – | –
O=C1CC(C(OCc2ccccc2)C(OCc2ccccc2)C(COCc2ccccc2)OCc2ccccc2)CC(=O)N1 (centres undefined) | > 100 | > 100 | – | > 100 | – | 65.6 | > 100 | > 100 | > 100 | > 100 | – | – | – | – | – | > 100 µM and 45.7 µM
COC(=O)[C@@](C)(COC(=O)C(C)(C)C)NC(=O)OC(C)(C)C | > 100 | > 100 | > 100 | > 100 | > 100 | > 100 | > 100 | > 100 | – | > 100 | – | – | – | – | – | –
COC(=O)CCc1c(Cc2ccc[nH]2)[nH]c(C(=O)OCc2ccccc2)c1C | 70.6 | 43.9 | 54.4 | 53.3 | 33.7 | – | – | – | – | 39.7 | – | – | – | – | – | –
